Assay [1] deals with human CGAS (157-522) (Homo sapiens, UniProt Q8N884). The experiment in a line: biochemical.
Assay [2] has as its system CGAS. Description: CGAS whole blood cytokine release assay (384-well, BacMam stimulation, IP-10 by cytometric bead array). It counts as cell-based. Conditions: Homo sapiens, 6 h; read-out: hWB pXC50 (converted). How it is done: Blood collection: Blood was collected in a tube containing 10% Sodium Heparin (5 ml/45 ml blood final).
Protocol for CGAS Whole Blood Cytokine Release Assay: Compounds serial diluted at 1:3 were provided at 150 nL per well, in a 384 well polypropylene microplate (cat. 781280; Greiner Bio-One, Frickenhausen, Germany). 5 μL of PBS/20% Null BacMam was dispensed to all wells except for column 18 on a Multidrop Combi (Thermo Scientific, Waltham, MA). 5 uL of PBS was dispensed into column 18. The Bravo (Agilent, Santa Clara, CA) was used to transfer 45 uL of donor derived blood into the compound plates. The Bravo protocol mixed the blood and compound/PBS 5 times. The plates were incubated at 37° C., 5% CO2, for 6 hours. At the 6 hour mark the plates were removed and centrifuged for 10 minutes at 3000 RPM. 3 uL of supernatant was transferred from the plate to a 384 well NBS microplate (cat. 4513; Corning Life Sciences, Corning, NY). These plates were sealed with adhesive foil and stored in a −80 freezer until ready for analysis.
For cytokine detection, Human IP-10 BD cytometric bead array (CBA) beads (BD Biosciences, Franklin Lakes, NJ) were used. Capture bead solution was prepared by performing a 1:50 dilution of the IP-10 capture bead stock solution in BD diluent for serum/plasma (cat. 51-9003991 BD Biosciences, Franklin Lakes, NJ). 2 μL of this solution was added per well to the assay microplates which were then sealed with adhesive foil and incubated at room temperature for 2 h in the dark. Detection reagent was further prepared by performing a 1:50 dilution of the detection reagent stock solution. 2 μL of detection reagent was added per well and microplates were sealed with adhesive foil and incubated at room temperature in the dark for 1 h. After the 1 h incubation 3 uL of BD CBA wash buffer was added per well of the microplates. Data were acquired on an iQue Screener flow cytometer. The iQue used fluorescence detection to quantify the inhibition of IP-10 present in the sample wells. A sip time of 1 second per sample was used. The blue laser with excitation of 488 nm and emission filters 585/40 nm were used to capture the mean and median of IP-10 with the detector in logarithmic mode (FL2-H).
All data analysis was carried out in IDBS ActivityBase XE.

human CGAS (157-522), sequence (Q8N884 157-522): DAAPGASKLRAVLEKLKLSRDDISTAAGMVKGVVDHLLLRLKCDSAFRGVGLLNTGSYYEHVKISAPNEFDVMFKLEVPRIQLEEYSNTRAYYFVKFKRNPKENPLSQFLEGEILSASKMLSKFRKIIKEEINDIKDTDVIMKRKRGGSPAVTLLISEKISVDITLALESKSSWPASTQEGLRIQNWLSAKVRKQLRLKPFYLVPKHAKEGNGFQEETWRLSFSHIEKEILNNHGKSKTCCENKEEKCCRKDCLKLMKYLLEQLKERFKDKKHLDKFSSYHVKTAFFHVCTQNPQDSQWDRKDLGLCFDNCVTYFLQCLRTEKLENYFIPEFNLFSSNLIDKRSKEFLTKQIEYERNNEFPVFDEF

Consider `N#CCCOCc1cnc2nc(-c3nc(C(F)(F)F)n[nH]3)c(-c3cnc[nH]3)n2c1` [Example 105, 3-{[3-(1H-imidazol-5-yl)-2-[3-(trifluoromethyl)-1H-1,2,4-triazol-5-yl]imidazo[1,2-a]pyrimidin-6-yl]methoxy}propanenitrile], for which the IC50 in assay [1] is 0.00316 µM; in assay [2], 1 µM.
In the same order, the values of `FC(F)(F)c1n[nH]c(-c2nc3ncc(COCCCC4CCCO4)cn3c2-c2cnc[nH]2)n1` (stereo not shown) [Example 140, 5-[3-(1H-imidazol-5-yl)-6-{[3-(oxolan-2-yl)propoxy]methyl}imidazo[1,2-a]pyrimidin-2-yl]-3-(trifluoromethyl)-1H-1,2,4-triazole] are 0.0126 µM and 0.794 µM.
For `FC(F)c1cnc2nc(-c3nc(C(F)(F)F)n[nH]3)c(-c3c[nH]cn3)n2c1` [Example 120, 5-[6-(difluoromethyl)-3-(1H-imidazol-4-yl)imidazo[1,2-a]pyrimidin-2-yl]-3-(trifluoromethyl)-1H-1,2,4-triazole] the same measures were 0.00631 µM and 0.631 µM.
In the same order, the values of `CCOCc1cn2c(-c3cnc[nH]3)c(-c3nc(C(F)F)n[nH]3)nc2nc1C(F)(F)F` [Example 117, 3-(difluoromethyl)-5-[6-(ethoxymethyl)-3-(1H-imidazol-5-yl)-7-(trifluoromethyl)imidazo[1,2-a]pyrimidin-2-yl]-1H-1,2,4-triazole] are 0.00631 µM and 3.16 µM.
As to `FC(F)c1n[nH]c(-c2nc3ncc(Cl)cn3c2-c2c[nH]cn2)n1` [Example 4, 5-[6-chloro-3-(1H-imidazol-4-yl)imidazo[1,2-a]pyrimidin-2-yl]-3-(difluoromethyl)-1H-1,2,4-triazole], the IC50 in assay [1] is 0.00398 µM; in assay [2], 0.0631 µM.
For `OCc1cnc2nc(-c3nc(C(F)(F)F)n[nH]3)c(-c3cnc[nH]3)n2c1` [Example 61, [3-(1H-imidazol-5-yl)-2-[3-(trifluoromethyl)-1H-1,2,4-triazol-5-yl]imidazo[1,2-a]pyrimidin-6-yl]methanol] the same measures were 0.0126 µM and 0.398 µM.
For `FC(F)(F)c1n[nH]c(-c2nc3nc4c(cn3c2-c2cnc[nH]2)CNC4)n1` [Example 63, 12-(1H-imidazol-5-yl)-11-[3-(trifluoromethyl)-1H-1,2,4-triazol-5-yl]-1,5,8,10-tetraazatricyclo[7.3.0.0^3,^7]dodeca-2,7,9,11-tetraene] the same measures were 0.00631 µM and 0.794 µM.
In the same order, the values of `FC(F)(F)c1n[nH]c(-c2nc3ncc(COCC4CCOC4)cn3c2-c2cnc[nH]2)n1` (stereo not shown) [Example 126, 5-[3-(1H-imidazol-5-yl)-6-{[(oxolan-3-yl)methoxy]methyl}imidazo[1,2-a]pyrimidin-2-yl]-3-(trifluoromethyl)-1H-1,2,4-triazole] are 0.00794 µM and 0.501 µM.
`CC(=O)OCn1cnc(-c2c(-c3nc(C(F)(F)F)nn3COC(C)=O)nc3ncccn23)c1` [Example 84, [5-(3-{1-[(acetyloxy)methyl]-1H-imidazol-4-yl}imidazo[1,2-a]pyrimidin-2-yl)-3-(trifluoromethyl)-1H-1,2,4-triazol-1-yl]methyl acetate]: the IC50 is 15.8 µM in assay [1] and 0.158 µM in assay [2].
With `CC(C)c1ccn2c(-c3cnc[nH]3)c(-c3nc(C(F)(F)F)n[nH]3)nc2n1` [Example 55, 5-[3-(1H-imidazol-5-yl)-7-(propan-2-yl)imidazo[1,2-a]pyrimidin-2-yl]-3-(trifluoromethyl)-1H-1,2,4-triazole], the IC50 in assay [1] was 0.00794 µM; in assay [2], 1 µM.
Take `Fc1cnc2nc(-c3nc(C(F)F)n[nH]3)c(-c3c[nH]cn3)n2c1` [Example 5, 3-(difluoromethyl)-5-[6-fluoro-3-(1H-imidazol-4-yl)imidazo[1,2-a]pyrimidin-2-yl]-1H-1,2,4-triazole]: the IC50 in assay [1] is 0.00251 µM; in assay [2], 0.2 µM.
